Our source for the IC50 values is US20150087627A1, “COMBINATION OF KINASE INHIBITORS AND USES THEREOF” (Intellikine LLC, priority 2011, published 2015).

Like-named read-outs stand apart in the source and are kept apart here.

What all share (assay type): biochemical
Test [1] concerns the target T1, PI3K α (p110α/p85α) (Homo sapiens, UniProt P42336).
T1 construct: purchased Upstate / Millipore Corporation
As to the kind of experiment: PI 3-Kinase (human) HTRF assay, PI3K α. The note with it: read-out: PI3K α IC50.

Test [2] deals with T2, PI3K β (p110β/p85α) (Homo sapiens, UniProt P42338).
T2 construct: purchased Upstate / Millipore Corporation
Briefly: PI 3-Kinase (human) HTRF assay, PI3K β. The note with it: read-out: PI3K β IC50. In general terms: Time-resolved FRET reads energy transfer from a long-lived donor to a nearby acceptor.

Test [3] has as its target T3, PI3K δ (Homo sapiens, UniProt O00329).
T3 construct: purchased Upstate / Millipore Corporation
As to the kind of experiment: PI 3-Kinase (human) HTRF assay, PI3K δ. The note with it: read-out: PI3K δ IC50.

T3 sequence (O00329 whole entry): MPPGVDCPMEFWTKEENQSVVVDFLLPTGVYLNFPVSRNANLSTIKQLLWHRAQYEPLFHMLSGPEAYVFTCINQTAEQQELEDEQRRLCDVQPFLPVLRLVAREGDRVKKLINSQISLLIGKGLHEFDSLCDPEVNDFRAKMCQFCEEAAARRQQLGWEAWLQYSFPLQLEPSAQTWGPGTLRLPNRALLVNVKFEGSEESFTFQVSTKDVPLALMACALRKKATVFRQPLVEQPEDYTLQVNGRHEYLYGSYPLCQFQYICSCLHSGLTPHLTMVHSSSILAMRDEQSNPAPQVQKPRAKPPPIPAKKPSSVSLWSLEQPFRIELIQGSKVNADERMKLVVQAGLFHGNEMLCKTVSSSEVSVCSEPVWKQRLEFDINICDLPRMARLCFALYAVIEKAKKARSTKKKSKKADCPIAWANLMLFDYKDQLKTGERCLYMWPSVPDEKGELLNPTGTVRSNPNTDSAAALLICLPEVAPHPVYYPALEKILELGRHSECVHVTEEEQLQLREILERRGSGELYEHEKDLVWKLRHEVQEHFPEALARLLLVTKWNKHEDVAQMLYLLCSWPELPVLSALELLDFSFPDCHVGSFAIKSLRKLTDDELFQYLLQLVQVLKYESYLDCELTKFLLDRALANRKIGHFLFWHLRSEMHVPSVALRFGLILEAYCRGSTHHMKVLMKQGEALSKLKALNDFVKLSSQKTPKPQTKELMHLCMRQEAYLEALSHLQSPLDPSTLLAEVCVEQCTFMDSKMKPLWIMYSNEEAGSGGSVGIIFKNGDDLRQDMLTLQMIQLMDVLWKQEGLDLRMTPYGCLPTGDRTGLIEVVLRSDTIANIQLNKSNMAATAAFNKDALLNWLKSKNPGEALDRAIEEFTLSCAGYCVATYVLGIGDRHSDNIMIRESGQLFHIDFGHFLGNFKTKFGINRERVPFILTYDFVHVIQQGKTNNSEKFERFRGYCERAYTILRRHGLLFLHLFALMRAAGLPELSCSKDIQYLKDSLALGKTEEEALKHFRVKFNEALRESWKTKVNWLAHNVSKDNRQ
T3 sequence (P27986 whole entry partner): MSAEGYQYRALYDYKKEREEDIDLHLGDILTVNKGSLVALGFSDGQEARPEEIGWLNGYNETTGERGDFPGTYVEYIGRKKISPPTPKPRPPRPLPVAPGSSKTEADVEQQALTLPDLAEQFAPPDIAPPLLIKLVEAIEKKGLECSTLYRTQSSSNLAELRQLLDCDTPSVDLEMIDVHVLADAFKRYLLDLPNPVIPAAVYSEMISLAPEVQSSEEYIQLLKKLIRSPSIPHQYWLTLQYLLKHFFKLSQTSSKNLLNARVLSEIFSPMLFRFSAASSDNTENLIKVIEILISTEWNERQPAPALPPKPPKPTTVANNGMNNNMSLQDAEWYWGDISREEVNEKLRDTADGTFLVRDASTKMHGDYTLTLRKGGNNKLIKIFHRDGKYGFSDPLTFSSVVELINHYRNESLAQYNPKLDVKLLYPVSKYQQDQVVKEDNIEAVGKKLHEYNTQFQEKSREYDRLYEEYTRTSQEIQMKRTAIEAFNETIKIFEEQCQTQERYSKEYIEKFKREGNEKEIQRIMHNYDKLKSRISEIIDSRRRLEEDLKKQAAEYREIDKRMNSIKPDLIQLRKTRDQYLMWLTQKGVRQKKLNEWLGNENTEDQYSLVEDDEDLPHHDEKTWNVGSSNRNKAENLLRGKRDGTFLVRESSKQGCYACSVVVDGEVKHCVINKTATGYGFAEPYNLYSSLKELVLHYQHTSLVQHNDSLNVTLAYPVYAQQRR
T2 sequence (P42338 whole entry): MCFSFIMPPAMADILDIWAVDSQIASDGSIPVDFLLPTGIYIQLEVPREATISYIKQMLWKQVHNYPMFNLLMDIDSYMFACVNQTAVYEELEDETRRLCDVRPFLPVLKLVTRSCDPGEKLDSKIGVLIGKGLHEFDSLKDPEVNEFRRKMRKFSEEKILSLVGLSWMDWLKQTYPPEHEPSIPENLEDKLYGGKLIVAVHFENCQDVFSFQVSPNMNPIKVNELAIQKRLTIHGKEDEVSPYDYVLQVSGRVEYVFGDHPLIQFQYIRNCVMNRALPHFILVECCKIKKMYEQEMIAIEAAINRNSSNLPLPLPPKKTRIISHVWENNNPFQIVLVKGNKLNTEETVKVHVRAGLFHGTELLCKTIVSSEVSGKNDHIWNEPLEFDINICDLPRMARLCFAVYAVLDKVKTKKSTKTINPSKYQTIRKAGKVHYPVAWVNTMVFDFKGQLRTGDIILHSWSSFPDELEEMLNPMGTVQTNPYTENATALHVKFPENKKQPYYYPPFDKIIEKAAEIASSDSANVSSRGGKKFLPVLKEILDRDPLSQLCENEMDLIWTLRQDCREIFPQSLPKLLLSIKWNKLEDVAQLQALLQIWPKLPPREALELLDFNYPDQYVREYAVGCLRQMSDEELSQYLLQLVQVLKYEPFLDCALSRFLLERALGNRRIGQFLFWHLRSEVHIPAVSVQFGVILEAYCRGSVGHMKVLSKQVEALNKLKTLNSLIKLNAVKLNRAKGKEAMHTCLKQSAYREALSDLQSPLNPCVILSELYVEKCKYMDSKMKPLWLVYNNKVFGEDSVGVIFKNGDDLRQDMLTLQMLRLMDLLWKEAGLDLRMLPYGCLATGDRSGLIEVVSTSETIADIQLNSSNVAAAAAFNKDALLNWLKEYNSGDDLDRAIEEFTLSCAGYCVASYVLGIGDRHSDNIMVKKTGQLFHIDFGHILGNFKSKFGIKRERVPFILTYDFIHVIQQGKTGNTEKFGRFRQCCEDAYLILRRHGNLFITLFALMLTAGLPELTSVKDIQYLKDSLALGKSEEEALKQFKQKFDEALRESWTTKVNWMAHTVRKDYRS
T2 sequence (P27986 whole entry partner): as the sequence (P27986 whole entry partner) above
T1 sequence (P42336 whole entry): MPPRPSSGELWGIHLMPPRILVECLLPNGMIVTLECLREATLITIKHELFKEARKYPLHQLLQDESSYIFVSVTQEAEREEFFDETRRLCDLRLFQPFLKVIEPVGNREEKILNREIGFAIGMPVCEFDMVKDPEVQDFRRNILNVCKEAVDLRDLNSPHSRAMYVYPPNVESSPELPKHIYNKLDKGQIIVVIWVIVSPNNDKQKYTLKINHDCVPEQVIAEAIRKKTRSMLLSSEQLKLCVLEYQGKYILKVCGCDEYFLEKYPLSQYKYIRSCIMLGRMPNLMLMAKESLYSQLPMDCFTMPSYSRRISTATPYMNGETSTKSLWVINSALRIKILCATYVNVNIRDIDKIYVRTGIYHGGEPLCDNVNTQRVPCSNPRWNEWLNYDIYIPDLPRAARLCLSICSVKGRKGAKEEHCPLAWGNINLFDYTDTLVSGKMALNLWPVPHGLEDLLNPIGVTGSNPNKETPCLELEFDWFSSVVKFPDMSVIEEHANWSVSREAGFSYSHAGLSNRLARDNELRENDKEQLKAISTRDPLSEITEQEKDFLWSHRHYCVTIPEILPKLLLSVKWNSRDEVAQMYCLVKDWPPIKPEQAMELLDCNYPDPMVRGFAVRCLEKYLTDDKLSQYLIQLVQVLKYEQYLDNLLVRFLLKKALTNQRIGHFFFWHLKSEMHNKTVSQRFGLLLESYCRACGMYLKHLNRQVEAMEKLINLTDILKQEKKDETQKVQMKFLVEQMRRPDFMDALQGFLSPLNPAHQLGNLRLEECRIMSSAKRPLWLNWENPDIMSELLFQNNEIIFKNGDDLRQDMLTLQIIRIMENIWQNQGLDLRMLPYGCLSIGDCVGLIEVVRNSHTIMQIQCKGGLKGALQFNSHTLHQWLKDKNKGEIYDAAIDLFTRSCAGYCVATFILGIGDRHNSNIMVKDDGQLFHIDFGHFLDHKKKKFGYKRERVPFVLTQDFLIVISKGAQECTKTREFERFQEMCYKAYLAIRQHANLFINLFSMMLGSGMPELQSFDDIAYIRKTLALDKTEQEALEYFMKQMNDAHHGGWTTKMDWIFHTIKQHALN
T1 sequence (P27986 whole entry partner): as the sequence (P27986 whole entry partner) above

Take `C[C@H]1CCCN1C(=O)c1cnc2ccc(-c3ccc4oc(N)nc4c3)cn12` [Compound 482]: the 50% inhibitory concentration (IC50) (commonly the concentration that gives 50% inhibition) in test [1] is < 0.1 µM; in test [2], > 10 µM.

As for `Nc1nc2cc(-c3ccc4ncc(-c5cccnc5)n4c3)ccc2o1` [Compound 37], the IC50 in test [1] and in test [3] was < 0.1 µM each time.

As for `CC(=O)Nc1nc2cc(-c3ccc4oc(N)nc4c3)ccc2o1` [Compound 244], the IC50 in test [1], in test [2] and in test [3] was > 10 µM throughout.

Regarding `Nc1nc2cc(-c3ccc4ncc(-c5cccnc5)cc4n3)ccc2o1` [Compound 567], the IC50 in test [1] (Table 4 (PI3K α inhibitors)) was < 0.1 µM.

Take `C[C@@H]1CCCN1C(=O)c1cnc2ccc(-c3ccc4oc(N)nc4c3)cn12` [Compound 481]: the IC50 in test [1] was < 0.1 µM; in test [2], < 10 µM; in test [3], < 10 µM.

As to `CCN(CC)CCCn1cnc2ccc(-c3ccc4oc(N)nc4c3)cc2c1=O` [Compound 281], the IC50 in test [1] was < 1 µM; in test [2], > 10 µM; in test [3], < 10 µM.

Take `Nc1nc2cc(-c3ccc4nnc(-c5ccncc5)n4c3)ccc2o1` [Compound 229]: the IC50 in test [1] is < 1 µM; in test [2] it was < 1 µM; in test [3], > 10 µM.

`CC1CN(c2cnc3ccc(-c4ccc5oc(N)nc5c4)cc3n2)CC(C)N1` (stereo not shown) [Compound 131]: the IC50 in test [1], in test [2] and in test [3] was < 1 µM throughout.

For `CN1CCN(C(=O)c2cnc3ccc(-c4ccc5sc(N)nc5c4)cn23)CC1` [Compound 144], the IC50 in test [1] is < 1 µM; in test [2], < 10 µM; in test [3], > 10 µM.

Regarding `CN(C)[C@H]1CCN(c2cnc3ccc(-c4ccc5oc(N)nc5c4)cc3n2)C1` [Compound 382], the results for the IC50 in test [1] and in test [2] were < 0.1 µM and < 1 µM, respectively.

With `C[C@H]1CN(c2cnc3cccc(-c4ccc5oc(N)nc5c4)c3n2)CCN1` [Compound 342], the IC50 in test [1], in test [2] and in test [3] was > 10 µM in each case.

Turning to `COc1ncc(-c2ccc3ncc(C(=O)N4CCOCC4)n3c2)cc1N` [Compound 414], the figures for the IC50 in test [1], in test [2] and in test [3] were < 10 µM, > 10 µM and > 10 µM, respectively.

Consider `CN1CCN(c2cnc3ccc(-c4ccc5oc(N)nc5c4)cc3n2)C(=O)C1` [Compound 390], for which, in test [1], the IC50 is < 10 µM.

With `CC(C)N1CCC(n2cnc3ccc(-c4cnc(Cl)c(NS(=O)(=O)c5ccccc5)c4)cc3c2=O)CC1` [Compound 521], the IC50 in test [1], in test [2] and in test [3] was < 0.1 µM each time.

Take `CN1CCN(c2cnc3ccc(-c4ccc5oc(N)nc5c4)nc3n2)CC1` [Compound 555]: the IC50 in test [1] (Table 4 (PI3K α inhibitors)) and in test [2] (Table 4 (PI3K α inhibitors)) was < 1 µM in each case.

In the case of `Nc1nc2cc(-c3ccc4ncc(C(=O)N5CC[C@@H](n6cccn6)C5)n4c3)ccc2o1` [Compound 477], the IC50 was < 0.1 µM in test [1], > 10 µM in test [2] and < 10 µM in test [3].

For `Nc1nc2cc(-c3ccc4nc(N)sc4c3)cc(F)c2o1` [Compound 436], the IC50 in test [1] was < 0.1 µM; in test [2], < 0.1 µM; in test [3] it was < 1 µM.

Regarding `Nc1nc2cc(-c3ccc4ncc(N5CCN(C6CC6)CC5)nc4c3)ccc2o1` [Compound 261], the 50% inhibitory concentration (IC50) in test [1] was < 0.1 µM; in test [2], < 1 µM; in test [3] it was > 10 µM.

As for `Nc1nc2cc(-c3cnc4ccc(C(=O)N5CCOCC5)cn34)ccc2o1` [Compound 541], the IC50 in test [1], in test [2] and in test [3] was > 10 µM throughout.

As to `O=C(c1cnc2ccc(-c3cccc(S(=O)(=O)Nc4ccccc4)c3)cn12)N1CCOCC1` [Compound 440], the concentration for half-maximal inhibition (IC50) in test [1], in test [2] and in test [3] was > 10 µM in each case.

Regarding `Nc1n[nH]c2c(-c3ccc4ncc(C(=O)N5CCOCC5)n4c3)cccc12` [Compound 490], the IC50 in test [1], in test [2] and in test [3] was > 10 µM in each case.

On to `C[C@H]1CN(C2CN(C(=O)c3cnc4ccc(-c5ccc6oc(N)nc6c5)cn34)C2)CCN1C` [Compound 512], for which the IC50 in test [1] was < 0.1 µM; in test [2], < 10 µM; in test [3] it was < 1 µM.

With `Nc1nc2cc(-c3ccc4ncc(N5CC(N6CCNC(=O)C6)C5)nc4c3)ccc2o1` [Compound 325], the IC50 was < 0.1 µM in test [1], < 1 µM in test [2] and < 10 µM in test [3].

In the case of `Nc1nc2cc(-c3ccc4nnc(-c5cccnc5)n4c3)ccc2o1` [Compound 300], the IC50 in test [1] is < 10 µM; in test [2], < 10 µM; in test [3], > 10 µM.

As for `Cc1cc2oc(N)nc2cc1-c1ccc2ncc(C(=O)N3CCOCC3)n2c1` [Compound 352], the IC50 in test [1], in test [2] and in test [3] was > 10 µM each time.

With `Nc1nc2cc(-c3ccc4[nH]nc(N)c4c3)ccc2o1` [Compound 427], the IC50 in test [1], in test [2] and in test [3] was > 10 µM each time.

Regarding `Nc1nc2cc(-c3ccc4ncc(C(=O)N5CCOCC5)n4c3)c(F)cc2o1` [Compound 372], the IC50 was < 1 µM in test [1], < 10 µM in test [2] and < 10 µM in test [3].

Take `CC(Oc1nc(-c2ccc3oc(N)nc3c2)cnc1N)C(F)(F)F` (stereo not shown) [Compound 239]: the 50% inhibitory concentration (IC50) was < 10 µM in test [1], < 1 µM in test [2] and < 10 µM in test [3].

In the case of `Nc1nc2ccc(-c3cc(F)c4oc(N)nc4c3)cc2o1` [Compound 433], the 50% inhibitory concentration (IC50) is < 1 µM in test [1], < 1 µM in test [2] and < 10 µM in test [3].

In the case of `Nc1nc2cc(-c3ccc4nccc(-c5cn[nH]c5)c4c3)ccc2o1` [Compound 20], the IC50 in test [1], in test [2] and in test [3] was < 0.1 µM each time.

Regarding `Cn1cc(-c2cnc3ccc(-c4ccc5oc(N)nc5c4)cc3n2)cn1` [Compound 94], the IC50 in test [1] was < 0.1 µM; in test [2], < 1 µM; in test [3], < 10 µM.

In the case of `CC1CN(c2cnc3ccc(-c4ccc5oc(N)nc5c4)cc3n2)CCO1` (stereo not shown) [Compound 173], the values for the IC50 in test [1], in test [2] and in test [3] were < 0.1 µM, < 1 µM and < 10 µM, respectively.

`CS(=O)(=O)Nc1nc2cc(-c3ccc4ncc(C(=O)N5CCOCC5)n4c3)ccc2o1` [Compound 405]: the IC50 in test [1], in test [2] and in test [3] was > 10 µM throughout.

With `CS(=O)(=O)CCN1CCN(C(=O)c2cnc3ccc(-c4ccc5oc(N)nc5c4)cn23)CC1` [Compound 198], the results for the IC50 in test [1], in test [2] and in test [3] were < 0.1 µM, < 10 µM and < 10 µM, respectively.

For `C[C@H]1CN(c2cnc3ccc(-c4cccc5c(N)nsc45)cc3n2)CCN1` [Compound 321], the IC50 in test [1], in test [2] and in test [3] was > 10 µM throughout.

Take `Nc1nc2cc(-c3ccc4ncc(N5CC(N6CCN(C7CC7)CC6)C5)nc4n3)ccc2o1` [Compound 620]: in test [1] (Table 4 (PI3K α inhibitors)), the IC50 was < 0.1 µM.

Regarding `Nc1nc2cc(-c3ccc4ncc(C(=O)N5CC[C@H](O)C5)n4c3)ccc2o1` [Compound 264], the IC50 is < 0.1 µM in test [1] and < 10 µM in test [2].

On to `C[C@H]1CN(c2cnc3ccc(-c4ccc5oc(N)nc5c4)nc3n2)CCN1` [Compound 552], for which the IC50 in test [1] (Table 4 (PI3K α inhibitors)) is < 1 µM; in test [2] (Table 4 (PI3K α inhibitors)), < 0.1 µM.

`C[C@@H]1COCCN1C1CN(c2cnc3ccc(-c4ccc5oc(N)nc5c4)nc3n2)C1` [Compound 600]: the IC50 in test [2] (Table 4 (PI3K α inhibitors)) and in test [3] (Table 4 (PI3K α inhibitors)) was > 10 µM in each case.

`Nc1nc2cc(-c3ccc4ncc(C(=O)N5CC[C@@H](O)C5)n4c3)ccc2o1` [Compound 265]: the figures for the IC50 in test [1] and in test [2] were < 0.1 µM and < 10 µM, respectively.

On to `Nc1nc2cc(-c3ccc4ncc(C#CC5CC5)n4c3)ccc2o1` [Compound 39], for which the IC50 in test [1] and in test [3] was < 0.1 µM throughout.

For `C[C@@H]1CN(c2cnc3ccc(-c4ccc5oc(N)nc5c4)cc3n2)CCN1` [Compound 179], the IC50 in test [1] is < 0.1 µM; in test [2], < 1 µM.

On to `Nc1nc2cc(-c3cnc4ccc(N5CCOCC5)nc4c3)ccc2o1` [Compound 624], for which the IC50 in test [2] (Table 4 (PI3K α inhibitors)) and in test [3] (Table 4 (PI3K α inhibitors)) was > 10 µM in each case.

Take `C[C@@H]1CN(c2cnc3ccc(-c4ccc5oc(N)nc5c4)nc3c2)CCN1` [Compound 599]: the IC50 is < 0.1 µM in test [1] (Table 4 (PI3K α inhibitors)) and < 1 µM in test [2] (Table 4 (PI3K α inhibitors)).

Take `CC(C)(N)C(=O)N1CCN(c2ccc3ncc(-c4ccc5oc(N)nc5c4)cc3n2)CC1` [Compound 633]: the IC50 in test [2] (Table 4 (PI3K α inhibitors)) and in test [3] (Table 4 (PI3K α inhibitors)) was > 10 µM throughout.

For `NCC(=O)N1CCN(c2cnc3ccc(-c4ccc5oc(N)nc5c4)nc3n2)CC1` [Compound 584], the 50% inhibitory concentration (IC50) in test [1] (Table 4 (PI3K α inhibitors)) is < 0.1 µM.

`Cn1ncc2c(-c3ccc4ncc(C(=O)N5CCOCC5)n4c3)cncc21` [Compound 537]: the IC50 in test [2] and in test [3] was > 10 µM throughout.

Turning to `Nc1nc2cc(-c3ccc4ncc(C(=O)NCCOCCO)n4c3)ccc2o1` [Compound 550], the IC50 in test [2] and in test [3] was < 10 µM each time.

For `Nc1nc2cc(-c3ccc4ncc(-c5cccnc5)nc4n3)ccc2o1` [Compound 554], the 50% inhibitory concentration (IC50) was < 1 µM in test [1] (Table 4 (PI3K α inhibitors)) and > 10 µM in test [3] (Table 4 (PI3K α inhibitors)).

Turning to `C[C@@H]1CN(C2CN(c3cnc4ccc(-c5ccc6oc(N)nc6c5)nc4c3)C2)CCN1C` [Compound 608], the results for the IC50 in test [1] (Table 4 (PI3K α inhibitors)) and in test [3] (Table 4 (PI3K α inhibitors)) were < 0.1 µM and < 1 µM, respectively.

Take `C[C@@H]1CN(C2CN(c3cnc4ccc(-c5ccc6oc(N)nc6c5)nc4n3)C2)CCN1C` [Compound 576]: the IC50 in test [1] (Table 4 (PI3K α inhibitors)) was < 0.1 µM; in test [2] (Table 4 (PI3K α inhibitors)), > 10 µM.
